Earlier results on one compound are cited in US20250235391A1, “Lip Balm Containing Caffeine, Nicotine or Testosterone” (Shear Kershman Laboratories, Inc., priority 2018, published 2025).

As for `CCCCCc1cc(O)c2c(c1)OC(C)(C)[C@@H]1CCC(C)=C[C@@H]21` [Dronabinol, A9-tetrahydrocannabinol], where the note is “after oral administration”, the “duration of action for psychoactive effects” value is 4 to 6 h, the “duration of appetite stimulant effect” value is ≥ 24 h and the “peak effect (time)” value was 2 to 4 h. Further, the maximal plasma levels entry (oral dosing of 20 mg in a sesame oil formulation) was “around 10 ng/ml”. Further, the “administered dose reaching systemic circulation” value (oral, first pass hepatic metabolism and high lipid solubility) is reported as 10-20%. Also, under “single oral dose”, the “absorbed after a single oral dose” value is reported as 90-95%.
